Broadly, the IC50 is the concentration that gives 50% inhibition.

The first experiment concerns PAF-induced aggregation of human thrombocytes. Kind of experiment: Inhibition of PAF-induced blood platelet aggregation in vitro. Type of experiment: cell-based. Particulars: Homo sapiens, read-out: PAF-Antag. IC50. Here is the method: 1. Inhibition of blood platelet aggregation in vitro
The PAF-induced aggregation of human thrombocytes in vitro is used to determine PAF-antagonistic activity. To obtain thrombocyte-rich plasma (TRP), blood is taken from an uncongested vein using a plastic syringe containing 3.8% sodium citrate solution. The ratio of sodium citrate solution to blood is 1:9. After careful mixing the citrate blood is centrifuged for 20 minutes at 150 g (1200 rpm). The thrombocyte aggregation is measured using the method devised by Born and Cross (G. V. R. Born and M. J. Cross, J. Physiol. 168, 178 (1963)), by adding an aggregation initiator (PAF) to the TRP with constant stirring.
The test substance is added 2 to 3 minutes before aggregation is initiated in a volume of 10 ul. Either distilled water, ethanol and/or dimethylsulphoxide (each in suitable concentrations) can be used as solvent.
Control mixtures contain corresponding volumes of these solvents. After the initial absorption has been recorded (2 to 3 minutes) aggregation is induced with PAF (5×10^-8 M).
The maximum of the first aggregation wave is used to assess the effects of the substance. The PAF-induced maximum absorption rate (=maximum aggregation×100%) is tested at the same time in a parallel mixture (=control mixture in one of the channels of the two-channel aggregometer) as each test mixture (second channel) and is used as a 100% value.
The aggregation value attained under the effect of the test substance is given as a percentage of the control value, i.e. less than 100% in the case of an inhibition of aggregation and over 100% in the case of an increase.
Each test substance is investigated at concentrations of from 10^-3 to 10^-8 M with a random sampling of n=4 with regard to an inhibitory effect on the PAF-induced thrombocyte aggregation. Then a concentration-activity curve is drawn up using 3 concentrations and the IC50 is determined (concentration giving a 50% inhibition of aggregation).
For the molecule `Clc1ccc2c(c1)C(c1ccccc1Cl)=NCc1cncn1-2` [compound 61], the IC50 amounted to 246 µM.
With `Cc1nnc2n1-c1ccc([N+](=O)[O-])cc1C(c1ccccc1Cl)=NC2` [compound 62], the IC50 is 10 µM.
Regarding `COC(=O)c1ccc2c(c1)C(c1ccccc1)=NCc1ncc(C)n1-2` [compound 78], the IC50 is 8 µM.
For `Cc1nnc2n1-c1sc(Cl)cc1C(c1ccccc1Cl)NC2` (centres unmarked) [compound 88], the IC50 is < 5 µM.
Same read-out and setting: as for `Cc1nnc2n1-c1sc3c(c1C(c1ccccc1Cl)=NC2)CCOC3` [compound 44], the figure is < 5 µM; as for `CSCc1cc2c(s1)-n1c(C)nnc1CN=C2c1ccccc1Cl` [compound 11], < 5 µM; as for `Cc1nnc2n1-c1cc(Cl)ccc1C(c1ccccc1Cl)NC2` (centres unmarked) [compound 87], 190 µM.
Still for that read-out and setting: with `Cc1nc2c(s1)C(c1ccccc1)=NCc1nncn1-2` [compound 26] the figure was 700 µM.
On to `CCOC(=O)C=C(C)c1cc2c(s1)-n1c(C)nnc1CN=C2c1ccccc1Cl` [compound 83], for which the IC50 was < 50 µM.
The same measure, in the same setting: with `CC(C)(O)c1ccc2c(c1)C(c1ccccc1)=NCc1nncn1-2` [compound 81] the figure was 103 µM; with `CCc1cc2c(s1)-n1c(C)nnc1CNC2c1ccccc1Cl` (centres unmarked) [compound 90], < 5 µM.
For the molecule `Cc1nnc2n1-c1ccc(Cl)cc1C(c1ccccc1Cl)NC2` (centres unmarked) [compound 86], the IC50 was found to be 8.3 µM.
On the same count and under the same terms, with `Clc1ccccc1C1=NCc2cncn2-c2sccc21` [compound 50] the figure was 87 µM.
`Cc1nnc2n1-c1cc(F)ccc1C(c1ccccc1Cl)=NC2` [compound 72]: the IC50 is 56 µM.
Consider `Clc1ccc2c(c1)C(c1ccccc1Cl)=NCc1nncn1-2` [compound 54], for which the IC50 is 115 µM.
On the same count and under the same terms, as for `CCn1nc(C)c2c1-n1c(C)nnc1CN=C2c1ccccc1Cl` [compound 27], the figure is 270 µM.
Still for that read-out and setting: as for `Cc1nnc2n1-c1sc(C(C)O)cc1C(c1ccccc1Cl)=NC2` (centres unmarked) [compound 77], the figure is < 10 µM; as for `Cc1nnc2n1-c1c(nnn1C)C(c1ccccc1Cl)=NC2` [compound 29], 950 µM; as for `Cc1nnc2n1-c1sc(Cl)cc1C(c1ccccc1Cl)=NC2` [compound 9], < 2 µM.
With `Cc1nnc2n1-c1sc(CS(C)(=O)=O)cc1C(c1ccccc1Cl)=NC2` [compound 47], the IC50 is < 10 µM.
Still for that read-out and setting: as for `CC(=O)c1ccc2c(c1)C(c1ccccc1)=NCc1nnc(C)n1-2` [compound 82], the figure is 63 µM.
On the same count and under the same terms, with `NCc1nnc2n1-c1sc(Br)cc1C(c1ccccc1Cl)NC2` (centres unmarked) [compound 93] the figure was < 50 µM; with `Cc1cnc2n1-c1sc(Br)cc1C(c1ccccc1Cl)=NC2` [compound 30], < 10 µM.
On to `Cc1nnc2n1-c1ccccc1C(c1ccccc1)=NC2`, for which the IC50 amounted to 16 µM.
On to `Cc1nnc2n1-c1sc(C(=O)O)cc1C(c1ccccc1Cl)=NC2` [compound 67], for which the half-inhibitory concentration (IC50) is > 100 µM.
Still for that read-out and setting: with `Cc1ccc2c(c1)-n1c(C)nnc1CN=C2c1ccccc1Cl` [compound 73] the figure was 243 µM; with `CC(=CC(=O)O)c1cc2c(s1)-n1c(C)nnc1CN=C2c1ccccc1Cl` [compound 59], > 50 µM.
Still for that read-out and setting: as for `Cc1nnc2n1-c1sc(C[S+](C)[O-])cc1C(c1ccccc1Cl)=NC2` (centres unmarked) [compound 46], the figure is < 10 µM.
On the same count and under the same terms, with `Fc1ccccc1C1=NCc2cncn2-c2ccc(Cl)cc21` [compound 69] the figure was 580 µM; with `Cc1nnc2n1-c1cc(Cl)ccc1C(c1ccccc1Cl)=NC2` [compound 5], 300 µM; with `Cc1nnc2n1-c1sc3c(c1C(c1ccccc1Cl)=NC2)CCNC3` [compound 45], < 10 µM.
Consider `Cc1nnc2n1-c1sc([N+](=O)[O-])cc1C(c1ccccc1Cl)=NC2` [compound 12], for which the IC50 is 2.6 µM.
Still for that read-out and setting: as for `Cc1ncc2n1-c1ccc(Cl)cc1C(c1ccccc1F)=NC2` [compound 31], the figure is 690 µM; as for `Clc1ccc2c(c1)C(c1ccccc1)=NCc1nnc(Br)n1-2` [compound 55], 119 µM.
In the case of `Cc1nnc2n1-c1sc(Br)cc1C(c1ccccc1Cl)NC2` (centres unmarked) [compound 89], the IC50 is < 10 µM.
As for `CCc1cc2c(s1)-n1c(C)nnc1CN=C2c1ccccc1Cl` [compound 8], the IC50 was < 5 µM.
`COc1nnc2n1-c1ccc(Cl)cc1C(c1ccccc1Cl)=NC2` [compound 56]: the IC50 amounted to 20.6 µM.
Still for that read-out and setting: with `Cc1cc2c(cc1C)-n1c(C)nnc1CN=C2c1ccccc1Cl` [compound 65] the figure was 217 µM; with `Cc1nnc2n1-c1ccc(Cl)cc1C(c1ccccc1)=NC2` [compound 3, Alprazolam, reference compound], 14 µM; with `COc1ccccc1C1NCc2nnc(C)n2-c2ccccc21` (centres unmarked) [compound 99], 218 µM.
On the same count and under the same terms, with `CCC1NC(c2ccccc2Cl)c2cc(Br)sc2-n2c(C)nnc21` (centres unmarked) [compound 97] the figure was < 100 µM; with `Cc1ccc2c(c1)-n1c(C)nnc1CNC2c1ccccc1Cl` (centres unmarked) [compound 105], 277 µM; with `Cc1nnc2n1-c1cccc(Cl)c1C(c1ccccc1Cl)=NC2` [compound 64], 280 µM.
As to `Cc1ccc2c(c1)C(c1ccccc1Cl)NCc1nnc(C)n1-2` (centres unmarked) [compound 102], the IC50 was < 5 µM.
In the case of `Cc1nnc2n1-c1ccsc1C(c1ccccc1)=NC2` [compound 23], the IC50 is 19.8 µM.
Still for that read-out and setting: with `CC(=O)c1cc2c(s1)-n1c(C)nnc1CN=C2c1ccccc1Cl` [compound 68] the figure was < 10 µM; with `CN(C)CCc1nnc2n1-c1sc(Br)cc1C(c1ccccc1Cl)N(C)C2` (centres unmarked) [compound 96], 26 µM.
Still for that read-out and setting: with `Cc1ccccc1C1NCc2nnc(C)n2-c2ccccc21` (centres unmarked) [compound 98] the figure was 63 µM; with `Cc1nnc2n1-c1c(Cl)cccc1C(c1ccccc1Cl)=NC2` [compound 71], 300 µM; with `CCOC(=O)c1ccc2c(c1)-n1c(C)nnc1CN=C2c1ccccc1` [compound 79], 38 µM.
Still for that read-out and setting: as for `COc1ccc2c(c1)C(c1ccccc1Cl)NCc1nnc(C)n1-2` (centres unmarked) [compound 100], the figure is < 50 µM; as for `Cc1nnc2n1-c1ccc(C#N)cc1C(c1ccccc1Cl)=NC2` [compound 75], < 20 µM; as for `Cc1nnc2n1-c1ccccc1C(c1ccccc1Cl)NC2` (centres unmarked) [compound 85], 8.7 µM.
Take `Cc1nnc2n1-c1ccccc1C(c1ccccc1Cl)=NC2` [compound 2]: the IC50 came out at 8.6 µM.
Turning to `CCOC(=O)c1ccn2c1CN=C(c1ccccc1Cl)c1cc(Cl)ccc1-2` [compound 60], the IC50 stood at 444 µM.
On the same count and under the same terms, as for `Cc1ccc2c(c1)C(c1ccccc1Cl)N(C)Cc1nnc(C)n1-2` (centres unmarked) [compound 104], the figure is 81 µM.
With `Cc1nnc2n1-c1sc(C#N)cc1C(c1ccccc1Cl)=NC2` [compound 58], the IC50 stood at 3.8 µM.
Consider `Cc1nnc2n1-c1sc(Br)cc1C(c1ccccc1Cl)=NC2` [compound 10], for which the IC50 was 0.5 µM.
For the molecule `Cc1nnc2n1-c1sc(Br)cc1C(c1ccccc1Br)NC2` (centres unmarked) [compound 91], the IC50 is < 5 µM.
Regarding `CCOC(=O)c1ncn2c1CN=C(c1ccccc1Cl)c1cc(Br)sc1-2` [compound 52], the half-inhibitory concentration (IC50) was found to be 134 µM.
For `Cc1nnc2n1-c1sc(Br)cc1C(c1ccccc1Cl)N(CCO)C2` (centres unmarked) [compound 94], the IC50 was 11 µM.
In the case of `CCOC(=O)c1ncn2c1CN=C(c1ccccc1Cl)c1ccsc1-2` [compound 49], the IC50 is 210 µM.
As to `CCOC(=O)c1ncc2n1-c1ccc(Cl)cc1C(c1ccccc1F)=NC2` [compound 70], the IC50 was 730 µM.
Same read-out and setting: with `Clc1ccccc1C1=NCc2cncn2-c2sc(Br)cc21` [compound 53] the figure was 97.4 µM; with `Clc1ccccc1C1NCc2nncn2-c2sc(Br)cc21` (centres unmarked) [compound 92], 140 µM; with `Cc1ccc2c(c1)C(c1ccccc1Cl)=NCc1nnc(C)n1-2` [compound 6], 9.1 µM.
`Cc1cc2c(cc1C)-n1c(C)cnc1CN=C2c1ccccc1Cl` [compound 48]: the IC50 was found to be 528 µM.
The same measure, in the same setting: with `Cc1nnc2n1-c1sc(CC(=O)O)cc1C(c1ccccc1Cl)=NC2` [compound 76] the figure was > 100 µM.
With `Cc1nnc2n1-c1sccc1C(c1ccccc1Cl)=NC2` [compound 7], the IC50 is 22 µM.
Still for that read-out and setting: as for `Cc1csc2c1-n1c(C)nnc1CN=C2c1ccccc1` [compound 22], the figure is > 100 µM.
In the case of `Cc1nnc2n1-c1sc(Br)cc1C(c1ccccc1Cl)N(C)C2` (centres unmarked) [compound 95], the IC50 was determined as 7.4 µM.
The same measure, in the same setting: with `Cc1nnc2n1-c1ccc(Cl)cc1C(c1ccccc1Cl)=NC2` [compound 4, Triazolam, reference compound] the figure was 9 µM.
In the case of `Clc1ccc2c(c1)C(c1ccccc1Cl)=NCc1nnc(C3CC3)n1-2` [compound 63], the IC50 amounted to 7 µM.

The experiment is the same for the next values; noted with them: table 3 (formula with R7), human thrombocyte-rich plasma, aggregation induced with PAF 5×10^-8 M, read-out: PAF-Antag. IC50.
As for `CCOC(=O)c1nc(C)n2c1CNC(c1ccccc1Cl)c1cc(Cl)ccc1-2` (centres unmarked) [compound 103], the IC50 stood at 519 µM.

Source of the values: patent US4621083A, “PAF-antagonistic diazepines” (Boehringer Ingelheim KG, priority 1984, dated 1986).
